The values that follow are results of earlier work, collected in US6642243B1, “Migraine medicine and method for treating same” (priority 1999, dated 2003).

The test system of one data set is cerebral blood flow. The following applies: in humans.
The subject of another data set is migraine patients. The following applies: pretreatment with 2 mg/kg; p<0.05.
The test system of data set [1] is individuals who take these agents. The following applies: treatment and prophylaxis of migraines.

Each structure is given as a SMILES string.

In the case of `Cn1c(=O)c2c(ncn2C)n(C)c1=O` [Caffeine, caffeine], the cerebral blood flow result with cerebral blood flow was “reduce cerebral blood flow”.

Consider `CN[C@@H](C)[C@@H](O)c1ccccc1` [Pseudoephedrine, pseudoephedrine], for which, in the data set with migraine patients, the “effects of increased postural hypotension seen in migraine patients versus normal patients” value is listed as “abolished” and the “effects of lower blood pressure after sustained handgrip seen in migraine patients versus normal patients” value is “abolished”.

In the case of `C[C@@H](CO)NC(=O)[C@@H]1C=C2c3cccc4[nH]cc(c34)C[C@H]2N(C)C1` [ergonovine], in data set [1], the “significant toxicity, share of the individuals who take these agents” value was roughly 40%.

Turning to `CC[C@@H](CO)NC(=O)[C@@H]1C=C2c3cccc4c3c(cn4C)C[C@H]2N(C)C1` [methysergide], the “significant toxicity, share of the individuals who take these agents” value in data set [1] is listed as roughly 40%.
